Among the data in patent US11051515B2, “3-acyl-benzamides and their use as herbicides” (Bayer Aktiengesellschaft, priority 2017, dated 2021) are pest or weed control values, retold here.

For assay [1], the system named is MATIN. Nature of the assay: Post-emergence action against MATIN. The conditions noted are these: Tripleurospermum inodorum, 504 h; post-emergence, dosage 80 g/ha, visual assessment about 3 weeks after treatment vs untreated controls; read-out: Post-emergence action against MATIN (herbicidal action in percent). The class given is in vivo, Matricaria inodora. The method in brief: (§1)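 Post-emergence foliar spray on greenhouse plants at the one-leaf stage, using wettable-powder or emulsion-concentrate formulations in water (600 to […], plus 0.2% wetting agent). Damage scored by eye roughly 3 weeks later against untreated plants: 0% = like control, 100% = dead.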

Assay [2] deals with AVEFA. The assay is described as follows: Pre-emergence action against AVEFA. The class given is in vivo, Avena fatua. Particulars: Avena fatua, 504 h, dosage 320 g/ha, scored visually after 3 weeks vs untreated controls, read-out: Pre-emergence action against AVEFA (herbicidal activity). The method in brief: (§2)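 Seeds sown in sandy loam in wood-fiber pots and covered with soil. Greenhouse growth; visual damage scored after 3 weeks versus untreated controls (100% = dead, 0% = like control).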

Assay [3] has as its system SETVI. Nature of the assay: Post-emergence action against SETVI. The class given is in vivo, Setaria viridis. Particulars: Setaria viridis, 504 h; post-emergence, dosage 80 g/ha, visual assessment about 3 weeks after treatment vs untreated controls; read-out: Post-emergence action against SETVI (herbicidal action in percent). In a few lines:
as §1

For assay [4], the system named is VIOTR. The assay is described as follows: Pre-emergence action against VIOTR. The conditions noted are these: Viola tricolor, 504 h; Dosage 320 g/ha, pre-emergence. Format: in vivo, Viola tricolor. The method in brief: as §2
Assay [5] relates to VIOTR. The assay is described as follows: Post-emergence action against VIOTR. Format: in vivo, Viola tricolor. Particulars: Viola tricolor, 504 h; post-emergence, dosage 80 g/ha. The method in brief:
as §1

Assay [6] relates to MATIN. Nature of the assay: Pre-emergence action against MATIN. Particulars: Tripleurospermum inodorum, 504 h; Dosage 320 g/ha, pre-emergence. Format: in vivo, Matricaria inodora. The method in brief:
as §2

In assay [7] the test system is LOLMU. Nature of the assay: Pre-emergence action against LOLMU. Particulars: Lolium multiflorum, 504 h, dosage 320 g/ha, scored visually after 3 weeks vs untreated controls, read-out: Pre-emergence action against LOLMU (herbicidal activity). The class given is in vivo, Lolium multiflorum. In a few lines: as §2
The subject of assay [8] is ALOMY. The assay is described as follows: Post-emergence action against ALOMY. The conditions noted are these: Alopecurus myosuroides, 504 h; Dosage 80 g/ha, post-emergence. Format: in vivo, Alopecurus myosuroides. The method in brief:
as §1

For assay [9], the system named is AMARE. Nature of the assay: Post-emergence action against AMARE. Format: in vivo, Amaranthus retroflexus. The conditions noted are these: Amaranthus retroflexus, 504 h; post-emergence, dosage 80 g/ha, visual assessment about 3 weeks after treatment vs untreated controls; read-out: Post-emergence action against AMARE (herbicidal action in percent). The method in brief: as §1

Assay [10] relates to AVEFA. Nature of the assay: Post-emergence action against AVEFA. The class given is in vivo, Avena fatua. The conditions noted are these: Avena fatua, 504 h; post-emergence, dosage 80 g/ha, visual assessment about 3 weeks after treatment vs untreated controls; read-out: Post-emergence action against AVEFA (herbicidal action in percent). The method in brief: as §1
For assay [11], the system named is ABUTH. The assay is described as follows: Pre-emergence action against ABUTH. The conditions noted are these: Abutilon theophrasti, 504 h; pre-emergence, dosage 320 g/ha, scored visually after 3 weeks vs untreated controls; read-out: Pre-emergence action against ABUTH (herbicidal activity). The class given is in vivo, Abutilon theophrasti. In a few lines: as §2
In assay [12] the test system is STEME. Nature of the assay: Pre-emergence action against STEME. The class given is in vivo, Stellaria media. Particulars: Stellaria media, 504 h; Dosage 320 g/ha, pre-emergence. The method in brief: as §2
Assay [13] deals with PHBPU. Nature of the assay: Post-emergence action against PHBPU. The class given is in vivo, Pharbitis purpurea. Particulars: Ipomoea purpurea, 504 h; post-emergence, dosage 80 g/ha. In a few lines: as §1
The test system of assay [14] is ALOMY. The assay is described as follows: Pre-emergence action against ALOMY. Particulars: Alopecurus myosuroides, 504 h; dosage 320 g/ha; pre-emergence; scored visually after 3 weeks vs untreated controls; 100% = plants have died, 0% = like control plants; read-out: Pre-emergence action against ALOMY (herbicidal activity in percent). Format: in vivo, Alopecurus myosuroides. The method in brief: as §2

Assay [15] has as its system AMARE. The assay is described as follows: Pre-emergence action against AMARE. The class given is in vivo, Amaranthus retroflexus. Particulars: Amaranthus retroflexus, 504 h; pre-emergence, dosage 320 g/ha, scored visually after 3 weeks vs untreated controls; read-out: Pre-emergence action against AMARE (herbicidal activity). In a few lines:
as §2

Assay [16] concerns ECHCG. Nature of the assay: Post-emergence action against ECHCG. The conditions noted are these: Echinochloa crus-galli, 504 h; post-emergence, dosage 80 g/ha, visual assessment about 3 weeks after treatment vs untreated controls; read-out: Post-emergence action against ECHCG (herbicidal action in percent). The class given is in vivo, Echinochloa crus-galli. The method in brief: as §1

Assay [17] relates to STEME. The assay is described as follows: Post-emergence action against STEME. The class given is in vivo, Stellaria media. The conditions noted are these: Stellaria media, 504 h; post-emergence, dosage 80 g/ha. In a few lines:
as §1

Assay [18] has as its system POLCO. Nature of the assay: Pre-emergence action against POLCO. Particulars: Fallopia convolvulus, 504 h; Dosage 320 g/ha, pre-emergence. Format: in vivo, Polygonum convolvulus. In a few lines: as §2
The test system of assay [19] is LOLMU. The assay is described as follows: Post-emergence action against LOLMU. Format: in vivo, Lolium multiflorum. Particulars: Lolium multiflorum, 504 h, dosage 80 g/ha, visual assessment about 3 weeks after treatment vs untreated controls, read-out: Post-emergence action against LOLMU (herbicidal action in percent). The procedure:
Seeds of monocotyledonous and dicotyledonous weed and crop plants are laid out in sandy loam soil in wood-fiber pots, covered with soil and cultivated in a greenhouse under good growth conditions. 2 to 3 weeks after sowing, the test plants are treated at the one-leaf stage. The compounds of the invention, formulated in the form of wettable powders (WP) or as emulsion concentrates (EC), are then sprayed onto the green parts of the plants in the form of an aqueous suspension or emulsion at a water application rate equating to […], with addition of 0.2% wetting agent. After the test plants have been left to stand in the greenhouse under optimal growth conditions for about 3 weeks, the action of the preparations is assessed visually in comparison to untreated controls (herbicidal action in percent (%): 100% activity=the plants have died, 0% activity=like control plants). […] At the same time, inventive compounds leave Gramineae crops such as barley, wheat, rye, millet/Sorghum, corn or rice virtually undamaged when applied post-emergence, even at high active ingredient dosages. In addition, some substances are also harmless to dicotyledonous crops such as soya, cotton, oilseed rape, sugar beet or potatoes. Some of the compounds according to the invention have high selectivity and are therefore suitable for controlling unwanted vegetation in agricultural crops by the post-emergence method. The data of Tables B18 to B34 below illustrate, in an exemplary manner, the […] herbicidal action of the compounds according to the invention, the herbicidal activity being stated in percent.

Assay [20] concerns ABUTH. The assay is described as follows: Post-emergence action against ABUTH. Format: in vivo, Abutilon theophrasti. The conditions noted are these: Abutilon theophrasti, 504 h; post-emergence, dosage 80 g/ha, visual assessment about 3 weeks after treatment vs untreated controls; read-out: Post-emergence action against ABUTH (herbicidal action in percent). The method in brief: as §1

Assay [21] deals with VERPE. The assay is described as follows: Pre-emergence action against VERPE. The class given is in vivo, Veronica persica. The conditions noted are these: Veronica persica, 504 h; Dosage 320 g/ha, pre-emergence. The method in brief: as §2
Assay [22] relates to SETVI. The assay is described as follows: Pre-emergence action against SETVI. The class given is in vivo, Setaria viridis. Particulars: Setaria viridis, 504 h; pre-emergence, dosage 320 g/ha, scored visually after 3 weeks vs untreated controls; read-out: SETVI (Table B8, pre-emergence herbicidal activity). The method in brief: as §2
Assay [23] concerns ECHCG. The assay is described as follows: Pre-emergence action against ECHCG. Format: in vivo, Echinochloa crus-galli. The conditions noted are these: Echinochloa crus-galli, 504 h; pre-emergence, dosage 320 g/ha, scored visually after 3 weeks vs untreated controls; read-out: Pre-emergence action against ECHCG (herbicidal activity). In a few lines:
as §2

Molecules are shown by their SMILES.

Take `Cn1nnnc1NC(=O)c1ccc(Cl)c(C(=O)C2CC2)c1Cl` [1-116]: the pest or weed control at 80 g/ha in assay [1] amounted to 90%; in [3] it was 100%; in [5], 90%; in assay [8], 90%; in assay [9], 90%; in assay [10], 100%. Further, the pest or weed control at 80 g/ha in assay [13] worked out at 90%; in assay [16], 90%; in assay [17], 100%; in assay [19] it was 100%; in [20], 90%. The pest or weed control at 320 g/ha in [2] was 100%; in [4] it was 100%; in [6], 100%; in assay [7], 100%; in [11], 90%; in assay [12], 90%. Further, the pest or weed control at 320 g/ha in assay [14] is 100%; in assay [15], 100%; in assay [18], 90%; in [21] it was 100%; in [22], 100%; in [23], 100%.
